Assay results reported in patent publication US20230089530A1, “QUINUCLIDINONE ANALOGUES AS ANTICANCER AGENTS” (Newave Pharmaceutical Inc., priority 2020, published 2023).
pIC50: −log10 of the molar value.

Tests used:
[1] = test system: RS4;11(G101V) cancer cells; assay: In vitro anti-proliferation assay in RS4;11 cell line with G101V mutation (ATPlite luminescence); assay type: cell-based; conditions: about 72 hours incubation, medium supplemented with 5% FBS or 10% normal human serum
Protocol: Biological Example 1: In Vitro Anti-Proliferation Assay in BCL-2-Dependent Acute Lymphoblastic Leukemia (ALL) Cell Line RS4;11 with G101V Mutation
(§1) The RS4;11 cell line used herein was engineered to stably overexpress the G101V mutant form of human Bcl-2. The cell antiproliferation was assayed by PerkinElmer ATPlite™ Luminescence Assay System. Briefly, the RS4;11(G101V) cancer cells were plated at a density of about 1×10^4 cells per well in Costar 96-well plates, and were incubated with different concentrations of compounds for about 72 hours in medium supplemented with 5% FBS or 10% normal human serum (NHS). One lyophilized substrate solution vial was then reconstituted by adding 5 mL of substrate buffer solution, and was agitated gently until the solution was homogeneous. About 50 μL of mammalian cell lysis solution was added to 100 μL of cell suspension per well of a microplate, and the plate was shaken for about five minutes in an orbital shaker at ˜700 rpm. This procedure was used to lyse the cells and to stabilize the ATP. Next, 50 μL substrate solution was added to the wells and microplate was shaken for five minutes in an orbital shaker at ˜700 rpm. Finally, the luminescence was measured by a PerkinElmer TopCount® Microplate Scintillation Counter. Such assays, carried out with a range of doses of test compounds, allowed the determination of the cellular anti-antiproliferative IC50 of the compounds of the present invention. The following table lists the IC50 values of certain compounds of the invention.

RS4;11-G101V cell line = assay: Another in vitro anti-proliferation assay in RS4;11-G101V cell line; assay type: cell-based, human
Protocol: as §1
The following table lists the IC50 values of another in vitro anti-proliferation assay in RS4;11-G101V cell line.

Mice PK study = assay type: in vivo; conditions: CD-1 mouse
Protocol: The pharmacokinetics of compounds were evaluated in CD-1 mouse via Intravenous and Oral Administration. The IV dose was administered as a slow bolus in the Jugular vein, and oral doses were administered by gavage. The formulation for IV dosing was 5% DMSO in 20% HPBCD in water, and the PO formulation was 2.5% DMSO, 10% EtOH, 20% Cremphor EL, 67.5% D5W. The PK time point for the IV arm was 5, 15, 30 min, 1, 2, 4, 6, 8, 12, 24 hours post dose, and for PO arm was 15, 30 min, 1, 2, 4, 6, 8, 12, 24 hours post dose. Approximately 0.03 mL blood was collected at each time point. Blood of each sample was transferred into plastic micro centrifuge tubes containing EDTA-K2 and collect plasma within 15 min by centrifugation at 4000 g for 5 minutes in a 4° C. centrifuge. Plasma samples were stored in polypropylene tubes. The samples were stored in a freezer at −75±15° C. prior to analysis. Concentrations of compounds in the plasma samples were analyzed using a LC-MS/MS method. WinNonlin (Phoenix™, version 6.1) or other similar software was used for pharmacokinetic calculations. The following pharmacokinetic parameters were calculated, whenever possible from the plasma concentration versus time data: IV administration: C0, CL, Vd, T1/2, AUCinf, AUClast, MRT, Number of Points for Regression; PO administration: Cmax, Tmax, T1/2, AUCinf, AUClast, F %, Number of Points for Regression. The pharmacokinetic data was described using descriptive statistics such as mean, standard deviation.

Compound: COC[C@@]1(CO)C(=O)C2(C)CCN1CC2 (single isomer, unassigned) [Example 3 (isomer 1)]
- pIC50 ([1]; Homo sapiens, RS4-11, 72 h): > 5.30

Compound: COC[C@@]1(CO)C(=O)C2(C)CCN1CC2 (single isomer, unassigned) [Example 3 (isomer 2)]
- pIC50 [1]: < 5.30

Compound: CCC12CCN(CC1)[C@@](CO)(COC)C2=O (single isomer, unassigned) [Example 6(isomer 1)]
- pIC50 ([1]; Homo sapiens, RS4-11, 72 h): > 5.30

Compound: CCC12CCN(CC1)[C@](CO)(COC)C2=O (single isomer, unassigned) [Example 6(isomer 2)]
- pIC50 ([1]; Homo sapiens, RS4-11, 72 h): > 5.30

Compound: CCOC[C@@]1(CO)C(=O)C2(C)CCN1CC2 (single isomer, unassigned) [Example 7(isomer 1)]
- pIC50 ([1]; Homo sapiens, RS4-11, 72 h): > 5.30

Compound: CCOC[C@]1(CO)C(=O)C2(C)CCN1CC2 (single isomer, unassigned) [Example 7(isomer 2)]
- pIC50 ([1]; Homo sapiens, RS4-11, 72 h): > 5.30

Compound: CC(C)OCC1(CO)C(=O)C2(C)CCN1CC2 (single isomer, unassigned) [Example 8(isomer 1), 2-(hydroxymethyl)-2-(isopropoxymethyl)-4-methyl-1-azabicyclo[2.2.2]octan-3-one]
- pIC50 ([1]; Homo sapiens, RS4-11, 72 h): > 5.30

Compound: CC(C)OCC1(CO)C(=O)C2(C)CCN1CC2 (single isomer, unassigned) [Example 8(isomer 2), 2-(hydroxymethyl)-2-(isopropoxymethyl)-4-methyl-1-azabicyclo[2.2.2]octan-3-one]
- pIC50 [1]: > 5.30

Compound: COCC1(CO)C(=O)C2CCN1CC2 (stereo not shown) [APR-246, reference compound]
- pIC50 (RS4;11-G101V cell line): 5.75
- pIC50 [1]: > 5.30

Compound: COCC1(CO)C(=O)C2(C)CCN1CC2 (stereo not shown) [Example 2, 2-(hydroxymethyl)-2-(methoxymethyl)-4-methyl-1-azabicyclo[2.2.2]octan-3-one]
- pIC50 ([1]; Homo sapiens, RS4-11, 72 h): > 5.30

Compound: CC12CCN(CC1)C(CO)(CO)C2=O [Example 4, 2,2-bis(hydroxymethyl)-4-methyl-1-azabicyclo[2.2.2]octan-3-one]
- pIC50 ([1]; Homo sapiens, RS4-11, 72 h): < 5.30

Compound: COCC1(CO)C(=O)C2(C(C)C)CCN1CC2 (stereo not shown) [Example 5, 2-(hydroxymethyl)-4-isopropyl-2-(methoxymethyl)-1-azabicyclo[2.2.2]octan-3-one]
- pIC50 ([1]; Homo sapiens, RS4-11, 72 h): > 5.30

Compound: COCC1(CO)C(=O)C2(F)CCN1CC2 (stereo not shown) [Example 9, 4-fluoro-2-(hydroxymethyl)-2-(methoxymethyl)-1-azabicyclo[2.2.2]octan-3-one]
- pIC50 ([1]; Homo sapiens, RS4-11, 72 h): < 5.30

Compound: COCC1(CO)C(=O)C2(C(F)(F)F)CCN1CC2 (stereo not shown) [Example 10, 2-(hydroxymethyl)-2-(methoxymethyl)-4-(trifluoromethyl)-1-azabicyclo[2.2.2]octan-3-one]
- pIC50 ([1]; Homo sapiens, RS4-11, 72 h): < 5.30

Compound: COC[C@]1(CO)C(=O)[C@H]2CC[N@]1[C@H](C)C2 [Example 15, (1R,2R,4S,6R)-2-(hydroxymethyl)-2-(methoxymethyl)-6-methylquinuclidin-3-one]
- bioavailability (in words) (Mice PK study): excellent bioavailability
- Bioavailabilty (Mice PK study; Oral, 100 mpk): 79%
- AUClas (Mice PK study; Oral, 100 mpk, plasma): 26,093 h*ng/mL
- pIC50 (RS4;11-G101V cell line): 6.14
- potency compared with reference compound APR-246 (RS4;11-G101V cell line): more potent than the reference compound APR-246
- pIC50 [1]: > 5.30

Compound: COC[C@@]1(CO)C(=O)[C@@H]2CC[N@@]1[C@@H](C)C2 [Example 16, (1S,2S,4R,6S)-2-(hydroxymethyl)-2-(methoxymethyl)-6-methylquinuclidin-3-one]
- pIC50 [1]: > 5.30
